pIC50: −log10 of the molar value.
Legend:
Assay type in all cases: biochemical
Human Calpain 1/NS1 = target: T1, Human Calpain 1/NS1 (Homo sapiens, UniProt P07384); experiment: Calpain inhibition continuous fluorescence (FRET) assay, Human Calpain 1/NS1; conditions: Column A; read-out: Human Calpain 1/NS1 IC50
T1 sequence (P07384 1-714): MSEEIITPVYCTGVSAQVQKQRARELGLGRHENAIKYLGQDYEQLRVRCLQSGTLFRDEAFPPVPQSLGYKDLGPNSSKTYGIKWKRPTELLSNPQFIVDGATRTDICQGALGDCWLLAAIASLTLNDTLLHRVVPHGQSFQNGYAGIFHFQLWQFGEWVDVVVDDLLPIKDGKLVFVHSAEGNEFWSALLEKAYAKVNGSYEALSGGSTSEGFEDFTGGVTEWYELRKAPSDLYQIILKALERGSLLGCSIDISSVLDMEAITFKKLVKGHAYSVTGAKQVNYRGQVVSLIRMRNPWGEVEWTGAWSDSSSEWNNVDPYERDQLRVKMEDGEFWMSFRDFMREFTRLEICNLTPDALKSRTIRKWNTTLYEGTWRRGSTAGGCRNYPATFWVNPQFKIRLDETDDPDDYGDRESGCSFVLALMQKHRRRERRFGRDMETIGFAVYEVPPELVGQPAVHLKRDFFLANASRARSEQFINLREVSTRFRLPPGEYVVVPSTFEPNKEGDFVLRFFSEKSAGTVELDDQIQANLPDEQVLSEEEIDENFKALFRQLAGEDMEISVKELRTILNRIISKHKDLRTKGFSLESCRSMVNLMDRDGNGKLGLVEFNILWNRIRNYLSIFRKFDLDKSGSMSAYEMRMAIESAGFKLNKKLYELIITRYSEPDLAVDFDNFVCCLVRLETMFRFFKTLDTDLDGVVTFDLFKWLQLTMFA
T1 sequence (P04632 1-268 partner): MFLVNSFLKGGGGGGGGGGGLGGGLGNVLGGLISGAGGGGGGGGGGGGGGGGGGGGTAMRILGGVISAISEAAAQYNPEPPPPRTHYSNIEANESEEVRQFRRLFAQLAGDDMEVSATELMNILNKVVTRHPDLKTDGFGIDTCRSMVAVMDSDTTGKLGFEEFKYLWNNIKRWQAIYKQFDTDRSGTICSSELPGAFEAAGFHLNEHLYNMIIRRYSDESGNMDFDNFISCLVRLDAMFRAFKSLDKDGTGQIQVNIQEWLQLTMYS
Method in brief: (§1)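 Human calpains 1, 2 and 9 preincubated with inhibitor at 25 °C in 50 mM Tris pH 7.5, 100 mM NaCl, 1 mM DTT; reaction started with 5-FAM/QXL 520 FRET peptide plus CaCl2 for activation. Fluorescence (490/520 nm) followed 10 min; rates from 1-5 min slopes fitted to 4-parameter logistic for IC50.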

Human Calpain 2/NS1 = target: T2, Human Calpain 2/NS1 (Homo sapiens, UniProt P17655); experiment: Calpain inhibition continuous fluorescence (FRET) assay, Human Calpain 2/NS1; conditions: Column B; read-out: Human Calpain 2/NS1 IC50
T2 sequence (P17655 1-700): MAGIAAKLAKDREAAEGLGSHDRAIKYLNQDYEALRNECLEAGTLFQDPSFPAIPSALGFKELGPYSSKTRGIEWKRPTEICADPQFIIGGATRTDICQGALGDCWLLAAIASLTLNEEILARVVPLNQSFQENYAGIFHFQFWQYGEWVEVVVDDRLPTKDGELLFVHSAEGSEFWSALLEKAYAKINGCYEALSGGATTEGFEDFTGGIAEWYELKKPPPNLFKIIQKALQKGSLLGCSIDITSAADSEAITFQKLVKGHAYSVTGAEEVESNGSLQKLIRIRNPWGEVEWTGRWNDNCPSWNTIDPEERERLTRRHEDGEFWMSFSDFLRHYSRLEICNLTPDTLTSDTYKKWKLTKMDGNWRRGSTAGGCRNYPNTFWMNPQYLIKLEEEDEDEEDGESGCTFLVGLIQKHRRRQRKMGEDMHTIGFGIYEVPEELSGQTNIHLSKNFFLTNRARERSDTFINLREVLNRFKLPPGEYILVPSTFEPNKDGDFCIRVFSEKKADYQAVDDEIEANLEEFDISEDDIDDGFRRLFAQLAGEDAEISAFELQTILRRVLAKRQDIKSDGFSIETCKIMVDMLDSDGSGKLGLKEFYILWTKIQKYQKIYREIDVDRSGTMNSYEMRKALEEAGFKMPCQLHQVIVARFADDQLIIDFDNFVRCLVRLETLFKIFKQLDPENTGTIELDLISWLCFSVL
T2 sequence (P04632 1-268 partner): T1 sequence (P04632 1-268 partner)
Method in brief: as §1

Human Calpain 9/NS1 = target: T3, Human Calpain 9/NS1 (Homo sapiens, UniProt O14815); experiment: Calpain inhibition continuous fluorescence (FRET) assay, Human Calpain 9/NS1; conditions: Column C; read-out: Human Calpain 9/NS1 IC50
T3 sequence (O14815 1-690): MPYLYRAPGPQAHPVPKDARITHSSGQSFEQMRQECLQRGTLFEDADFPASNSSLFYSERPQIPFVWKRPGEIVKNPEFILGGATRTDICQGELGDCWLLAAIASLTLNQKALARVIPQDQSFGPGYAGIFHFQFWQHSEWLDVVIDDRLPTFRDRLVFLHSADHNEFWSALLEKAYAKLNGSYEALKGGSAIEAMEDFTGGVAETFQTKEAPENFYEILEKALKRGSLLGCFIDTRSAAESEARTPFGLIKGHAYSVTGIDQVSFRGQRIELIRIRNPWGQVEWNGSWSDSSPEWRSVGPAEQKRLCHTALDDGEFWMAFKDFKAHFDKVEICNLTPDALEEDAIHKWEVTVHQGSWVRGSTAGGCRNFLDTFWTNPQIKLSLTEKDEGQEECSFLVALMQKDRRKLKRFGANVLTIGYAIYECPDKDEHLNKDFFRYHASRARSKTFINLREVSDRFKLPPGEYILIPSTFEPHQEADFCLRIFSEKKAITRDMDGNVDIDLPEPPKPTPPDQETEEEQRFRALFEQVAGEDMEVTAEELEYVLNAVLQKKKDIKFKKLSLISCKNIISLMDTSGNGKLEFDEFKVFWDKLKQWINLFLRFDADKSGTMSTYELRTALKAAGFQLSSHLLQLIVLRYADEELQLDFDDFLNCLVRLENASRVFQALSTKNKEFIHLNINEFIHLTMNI
T3 sequence (P04632 1-268 partner): T1 sequence (P04632 1-268 partner)
Method in brief: as §1

pIC50 (Human Calpain 1/NS1) | pIC50 (Human Calpain 2/NS1) | pIC50 (Human Calpain 9/NS1) | Structure (SMILES)
< 5.00 | < 5.00 | < 5.00 | CC(C)(C)c1cc(C(=O)N[C@@H](Cc2ccccc2)C(=O)C(=O)NC2CC2)n(-c2ccccc2)n1 [Compound 137, (S)-3-(tert-butyl)-N-(4-(cyclopropylamino)-3,4-dioxo-1-phenylbutan-2-yl)-1-phenyl-1H-pyrazole-5-carboxamide]
> 5.52 | > 5.52 | > 5.52 | Cc1cc(C(=O)N[C@@H](Cc2ccccc2)C(=O)C(N)=O)n(-c2cncnc2)n1 [Compound 138, (S)—N-(4-amino-3,4-dioxo-1-phenylbutan-2-yl)-3-methyl-1-(pyrimidin-5-yl)-1H-pyrazole-5-carboxamide]
> 5.52 | > 5.52 | > 5.52 | Cc1noc(-n2cc3ccccc3n2)c1C(=O)N[C@@H](Cc1ccccc1)C(=O)C(N)=O [Compound 139, (S)—N-(4-amino-3,4-dioxo-1-phenylbutan-2-yl)-5-(2H-indazol-2-yl)-3-methylisoxazole-4-carboxamide]
> 5.52 | > 5.52 | > 5.52 | NC(=O)C(=O)[C@H](Cc1ccccc1)NC(=O)c1ncoc1-c1ccccc1 [Compound 148, (S)—N-(4-amino-3,4-dioxo-1-phenylbutan-2-yl)-5-phenyloxazole-4-carboxamide]
> 5.52 | > 5.52 | > 5.52 | Cn1ncc(C(=O)N[C@@H](Cc2ccccc2)C(=O)C(N)=O)c1-c1ccncc1 [Compound 165, (S)—N-(4-amino-3,4-dioxo-1-phenylbutan-2-yl)-1-methyl-5-(pyridin-4-yl)-1H-pyrazole-4-carboxamide]
> 5.52 | > 5.52 | > 5.52 | Cc1ccc(-c2c(C(=O)N[C@@H](Cc3ccccc3)C(=O)C(N)=O)cnn2C)cc1 [Compound 167, (S)—N-(4-amino-3,4-dioxo-1-phenylbutan-2-yl)-1-methyl-5-(p-tolyl)-1H-pyrazole-4-carboxamide]
> 5.52 | > 5.52 | > 5.52 | Cn1ncc(C(=O)N[C@@H](Cc2ccccc2)C(=O)C(N)=O)c1-c1cncnc1 [Compound 176, (S)—N-(4-amino-3,4-dioxo-1-phenylbutan-2-yl)-1-methyl-5-(pyrimidin-5-yl)-1H-pyrazole-4-carboxamide]
> 5.52 | > 5.52 | > 5.52 | Cn1ncc(C(=O)N[C@@H](Cc2ccccc2)C(=O)C(N)=O)c1-c1ncccn1 [Compound 191, (S)—N-(4-amino-3,4-dioxo-1-phenylbutan-2-yl)-1-methyl-5-(pyrimidin-2-yl)-1H-pyrazole-4-carboxamide]

Second part, the compound before the results:

Structure (SMILES) | pIC50 (Human Calpain 1/NS1) | pIC50 (Human Calpain 2/NS1) | pIC50 (Human Calpain 9/NS1)
Cc1cc(C(=O)N[C@@H](Cc2ccccc2)C(=O)C(=O)NCc2ccc(Cl)c(Cl)c2)n(-c2ccccc2)n1 [Compound 149, (S)—N-(4-((3,4-dichlorobenzyl)amino)-3,4-dioxo-1-phenylbutan-2-yl)-3-methyl-1-phenyl-1H-pyrazole-5-carboxamide] | < 5.00 | < 5.00 | < 5.00
Cc1noc(-c2ccccc2)c1C(=O)N[C@@H](Cc1ccccc1)C(=O)C(=O)NCc1cccc(OC(F)(F)F)c1 [Compound 150, (S)—N-(3,4-dioxo-1-phenyl-4-((3-(trifluoromethoxy)benzyl)amino)butan-2-yl)-3-methyl-5-phenylisoxazole-4-carboxamide] | < 5.00 | < 5.00 | < 5.00
Cc1noc(-c2ccccc2)c1C(=O)N[C@@H](Cc1ccccc1)C(=O)C(=O)NCc1ccc(S(C)(=O)=O)cc1 [Compound 151, (S)-3-methyl-N-(4-((4-(methylsulfonyl)benzyl)amino)-3,4-dioxo-1-phenylbutan-2-yl)-5-phenylisoxazole-4-carboxamide] | > 5.52 | > 5.52 | > 5.52
Cc1noc(-c2ccccc2)c1C(=O)N[C@@H](Cc1ccccc1)C(=O)C(=O)NCc1cccc(S(C)(=O)=O)c1 [Compound 152, (s)-3-methyl-N-(4-((3-(methylsulfonyl)benzyl)amino)-3,4-dioxo-1-phenylbutan-2-yl)-5-phenylisoxazole-4-carboxamide] | > 5.52 | > 5.52 | > 5.52
Cn1cc(C(=O)N[C@@H](Cc2ccccc2)C(=O)C(N)=O)c(-c2ccccn2)n1 [Compound 169, (S)—N-(4-amino-3,4-dioxo-1-phenylbutan-2-yl)-1-methyl-3-(pyridin-2-yl)-1H-pyrazole-4-carboxamide] | > 5.52 | > 5.52 | > 5.52
Cn1ncc(C(=O)N[C@@H](Cc2ccccc2)C(=O)C(N)=O)c1-c1cccnc1 [Compound 189, (S)—N-(4-amino-3,4-dioxo-1-phenylbutan-2-yl)-1-methyl-5-(pyridin-3-yl)-1H-pyrazole-4-carboxamide] | > 5.52 | > 5.52 | > 5.52
Cc1ccccc1-c1c(C(=O)N[C@@H](Cc2ccccc2)C(=O)C(N)=O)cnn1C [Compound 190, (S)—N-(4-amino-3,4-dioxo-1-phenylbutan-2-yl)-1-methyl-5-(o-tolyl)-1H-pyrazole-4-carboxamide] | 5.00 to 5.52 | < 5.00 | 5.00 to 5.52
Cn1cc(C(=O)N[C@@H](Cc2ccccc2)C(=O)C(N)=O)c(-c2ccncn2)n1 [Compound 192, (S)—N-(4-amino-3,4-dioxo-1-phenylbutan-2-yl)-1-methyl-3-(pyrimidin-4-yl)-1H-pyrazole-4-carboxamide] | > 5.52 | > 5.52 | > 5.52
Cn1ncc(C(=O)N[C@@H](Cc2ccccc2)C(=O)C(N)=O)c1-c1cccc(C(F)(F)F)n1 [Compound 194, (S)—N-(4-amino-3,4-dioxo-1-phenylbutan-2-yl)-1-methyl-5-(6-(trifluoromethyl)pyridin-2-yl)-1H-pyrazole-4-carboxamide] | > 5.52 | > 5.52 | > 5.52
C=CC[C@H](NC(=O)c1cn(C)nc1-c1ccccc1)C(=O)C(N)=O [Compound 195, N-(1-amino-1,2-dioxohex-5-en-3-yl)-1-methyl-3-phenyl-1H-pyrazole-4-carboxamide] | > 5.52 | 5.00 to 5.52 | > 5.52
